According to PubChem BioAssay (NCI):
Several values for one entry are separate records, joined by “and”; a condition that tells them apart may be missing. Equal values may be shown once.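 Briefly, cells in 96-well plates were exposed to five compound concentrations for 48 h, and endpoints were estimated by linear interpolation. Abbreviation: GI50, concentration required for 50% inhibition of growth. TGI: concentration producing complete growth inhibition.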

How the values were obtained:
Experiment in all cases: NCI-60 cell line screen, 48 h
HCC-2998 colon = test system: HCC-2998 colon
HCT-15 colon = test system: HCT-15 colon
MDA-MB-231 breast = test system: MDA-MB-231 breast
NCI-H23 lung = test system: NCI-H23 lung
NCI-H522 lung = test system: NCI-H522 lung
NCI/ADR-RES ovarian = test system: NCI/ADR-RES ovarian
OVCAR-4 ovarian = test system: OVCAR-4 ovarian
SNB-19 CNS = test system: SNB-19 CNS
SR leukemia = test system: SR leukemia
T-47D breast = test system: T-47D breast
SF-268 CNS = test system: SF-268 CNS
SW-620 colon = test system: SW-620 colon
TK-10 renal = test system: TK-10 renal

| Structure (SMILES) | TGI (HCC-2998 colon) [µM] | TGI (HCT-15 colon) | TGI (MDA-MB-231 breast) [µM] | TGI (NCI-H23 lung) | TGI (NCI-H522 lung) | TGI (NCI/ADR-RES ovarian) | TGI (OVCAR-4 ovarian) | TGI (SNB-19 CNS) [µM] | TGI (SR leukemia) [µM] | TGI (T-47D breast) [µM] | TGI (SF-268 CNS) [µM] | TGI (SW-620 colon) | TGI (TK-10 renal) [µM] | GI50 (HCT-15 colon) [µM] | GI50 (NCI-H23 lung) | GI50 (NCI-H522 lung) | GI50 (NCI/ADR-RES ovarian) | GI50 (OVCAR-4 ovarian) | GI50 (SF-268 CNS) | GI50 (SW-620 colon) |
| --- | --- | --- | --- | --- | --- | --- | --- | --- | --- | --- | --- | --- | --- | --- | --- | --- | --- | --- | --- | --- |
| S=C1SC(=Nc2ccccc2)C(=Nc2ccccc2)N1c1ccccc1 | > 100 | > 100 µM | > 100 | > 100 µM | > 100 µM | > 100 µM | > 100 µM | > 100 | > 100 | > 100 |  |  |  |  |  |  |  |  |  |  |
| CC(C)=CC1C(COC(=O)c2cc3c(cc2Cl)OCO3)C1(C)C (centres undefined) |  | 92.6 µM | > 100 | > 100 µM | 46.4 µM | > 100 µM | > 100 µM | > 100 | 78.3 | > 100 | 65.8 | > 100 µM | > 100 |  |  |  |  |  |  |  |
| CC1C(=O)OC2CC[N+]3(CC(=O)c4ccc(Br)cc4)CC=C(COC(=O)C(C)(O)C1(C)O)C23 (centres undefined) | > 375 | > 375 µM |  | > 375 µM | > 375 µM | > 375 µM | > 375 µM | > 375 |  |  | > 375 | > 375 µM |  |  |  |  |  |  |  |  |
| N#C[S-].[Nd+3].c1cnc2c(c1)ccc1cccnc12.c1cnc2c(c1)ccc1cccnc12.c1cnc2c(c1)ccc1cccnc12 | 20 |  |  | 23.3 µM | 18.1 µM |  | 14.4 µM | 20.3 | > 100 |  | 43 | 24.7 µM | 22 |  |  |  |  |  |  |  |
| CN1C(=O)c2ccccc2NC(=O)c2cnn(C)c21 | > 100 | > 100 µM |  | > 100 µM | > 100 µM | > 100 µM | > 100 µM | > 100 |  |  | > 100 | > 100 µM |  |  |  |  |  |  |  |  |
| CC1=C(C)C(=O)O[C@@H]([C@](C)(O)[C@]2(O)CC[C@@]3(O)[C@@H]4C[C@H]5O[C@]56[C@@H](O)C=CC(=O)[C@]6(C)[C@H]4CC[C@]23C)C1 | 5.76 | 2.87 µM and 3.02 µM |  | 4.63 µM and 1.29 µM | 2.16 µM and 1 µM | 131 µM and 57.5 µM | 3.08 µM and 1 µM | 31.1 |  |  |  | 0.787 µM and 0.574 µM |  | 0.169 | 0.38 µM and 0.205 µM | 0.0804 µM and 0.0721 µM | 9.65 µM and 6.24 µM | 0.0878 µM and 0.43 µM | 1.3 µM and 0.381 µM | 0.266 µM and 0.0856 µM |
| O=c1[nH]c(Nc2ccc(F)c(Cl)c2)nc2nc[nH]c12 | > 100 | > 100 µM | > 100 | > 100 µM | > 100 µM | > 100 µM | > 100 µM | > 100 |  | > 100 | > 100 | > 100 µM | > 100 |  |  |  |  |  |  |  |
| COc1cc(O)cc(/C=C/c2ccc(O)cc2)c1 |  | 29.9 µM | 47.9 | 96.1 µM | > 100 µM | > 100 µM | > 100 µM | > 100 | > 100 | > 100 | > 100 | > 100 µM | 93.6 |  |  |  |  |  |  |  |
| COCO[C@@H]1C[C@H]2C(O)Nc3ccccc3C(=O)N2C1 (some centres undefined) | > 100 | > 100 µM | > 100 | > 100 µM |  | > 100 µM | > 100 µM | > 100 | > 100 | > 100 | > 100 | > 100 µM | > 100 |  |  |  |  |  |  |  |
| CC(C)(C)NCc1cc(Nc2ccnc3cc(Cl)ccc23)cc(-c2ccc(Cl)cc2)c1O | 3.82 | 9.96 µM | 11.7 | 14 µM | 7.51 µM | 14.4 µM | 14.5 µM | 18.2 | 4.97 | 13.3 | 16.2 | 5.3 µM | 7.76 |  |  |  |  |  |  |  |
| COCc1nc2c(OC)cc(-c3nc4nc(N5CCN(C)CC5)ccc4[nH]3)c(OC)c2[nH]1 | > 100 | > 100 µM | > 100 | > 100 µM | > 100 µM | > 100 µM | > 100 µM | > 100 | > 100 | > 100 | > 100 | > 100 µM | > 100 |  |  |  |  |  |  |  |
| Nc1ccccc1CCCC(=O)O | > 100 | > 100 µM | > 100 | > 100 µM | > 100 µM | > 100 µM | > 100 µM | > 100 | > 100 | > 100 | > 100 | > 100 µM | > 100 |  |  |  |  |  |  |  |
| Cc1cc(NC(=S)Nc2ccccc2)c(NC(=S)Nc2ccccc2)cc1C | > 57.6 | > 100 µM |  | > 95.1 µM | 32.4 µM | 28.9 µM | > 100 µM | > 100 |  |  | > 100 | > 100 µM |  |  |  |  |  |  |  |  |
| O=C(O)CCCCCCC[C@@H]1S[C@H]1CCCCCCO | > 100 | > 100 µM |  | > 100 µM | > 100 µM | > 100 µM | > 100 µM | > 100 |  |  | > 100 | > 100 µM |  |  |  |  |  |  |  |  |
| COc1cc2c(cc1OCCCOc1cc(-c3ccc(F)cc3)nc(C)n1)N=C[C@@H]1CCCN1C2=O |  | 25.8 µM | 30 | 29.4 µM | 37.2 µM |  | > 100 µM | 64.4 | 27.4 | > 100 | 36.4 | 64 µM | 34.5 |  |  |  |  |  |  |  |
| CCSc1nc(N)c2c(-c3ccc(OC)c(OC)c3)c3c(nc2n1)CCCC3 |  | > 100 µM | > 100 | > 100 µM |  | > 100 µM | > 100 µM | > 100 | > 100 | > 100 | > 100 | > 100 µM | > 100 |  |  |  |  |  |  |  |
| CN(C)c1ccc(/C=C2/SC(=S)NC2=O)cc1 | > 100 | > 100 µM | > 100 | > 100 µM | > 100 µM | > 100 µM | > 100 µM | > 100 | > 100 | > 100 | > 100 | > 100 µM | 53 |  |  |  |  |  |  |  |
| Cn1c2ccccc2c2c(-c3ccccc3)[n+]3ccccc3nc21 |  | > 100 µM | 97.5 | 54.1 µM | 69.7 µM | > 100 µM | > 100 µM | > 100 | 60.3 | > 100 | 38.8 | 86.9 µM | 85 |  |  |  |  |  |  |  |
